Laboratory results from patent publication US20190064177A1, “INCORPORATING COMPETITIVE BINDING INFORMATION INTO MOLECULAR ARRAY ANALYSIS TO GENERATE FUNCTION NETWORKS OF INTERACTIONS” (ARIZONA BOARD OF REGENTS ON BEHALF OF ARIZONA STATE …, priority 2017, published 2019).

These sequences were tested on diaphorase (assay: fluorescently labeled diaphorase binding to peptide array with or without excess FAD). Details: 1 micromolar labeled diaphorase, excess FAD present; 65535 is detector saturation.
Description: Measurements were performed in which diaphorase was bound to an array of about 126,000 unique sequences. The sequences were chosen simply to cover sequence space. 16 of the natural 20 amino acids were used to make up these sequences with C, I, M and T omitted. The diaphorase was fluorescently labeled and each peptide sequence feature was scanned and fluorescence recorded on the array. Diaphorase bound tightly to some peptides and not at all to others. Two different concentrations of diaphorase were used, 1 and 10 micromolar, and the diaphorase was either bound in the presence of excess FAD or not. […] Indeed the Pearson correlation coefficient between w/ and w/o FAD was >0.97, which actually speaks to the reproducibility of this dataset. However, there are some differences as shown on the scatter plot of FIG. 1. When one takes a ratio of the binding without FAD and the binding with FAD, one finds the following top 30 ratios (Table 1): Note that all these sequences end with a GSG linker sequence. Because there are two concentrations, one can easily check for consistency. Note that 65535 is detector saturation, so one has to ignore those values. For this reason, the lower concentration is used most of the time. […] It appears that this was some kind of error and was ignored in subsequent analysis. A similar conclusion can be made with the 7th highest value. Looking at the sequences, RW or at least R or K followed by a nonpolar or aromatic amino acid at the N-terminus. This is interesting as FAD is negatively charged, though the adenine in FAD looks a bit like tryptophan (see FIG. 2).

Sequence	1 microM FAD (array fluorescence of bound diaphorase)
QLLQLLFGGSG [array peptide with C-terminal GSG linker]	6311.5
RLQYLFKSDGSG [array peptide with C-terminal GSG linker]	1964.75
LKQLFLEGGSG [array peptide with C-terminal GSG linker]	2474.5
WRGFKFADGGSG [array peptide with C-terminal GSG linker]	2156.5

More lines, now with the values ahead:

1 microM FAD (array fluorescence of bound diaphorase)	Sequence
2458	PRYQNFGGGSG [array peptide with C-terminal GSG linker]
2373	YRFPNAQSPGGSG [array peptide with C-terminal GSG linker]
5458	RWQYYNQKFGSG [array peptide with C-terminal GSG linker]
727.5	KHSFQKELGGSG [array peptide with C-terminal GSG linker]
3483.25	RYPWNKLYKFDGSG [array peptide with C-terminal GSG linker]

Same assay, conditions: 1 micromolar labeled diaphorase, no FAD; 65535 is detector saturation

Sequence	1 micro no FAD (array fluorescence of bound diaphorase)
QLLQLLFGGSG [array peptide with C-terminal GSG linker]	3228.25
RLQYLFKSDGSG [array peptide with C-terminal GSG linker]	5778.25
LKQLFLEGGSG [array peptide with C-terminal GSG linker]	1559.25
WRGFKFADGGSG [array peptide with C-terminal GSG linker]	5654.5

The next lines start with the values.

1 micro no FAD (array fluorescence of bound diaphorase)	Sequence
6907	PRYQNFGGGSG [array peptide with C-terminal GSG linker]
6240	YRFPNAQSPGGSG [array peptide with C-terminal GSG linker]
15697.5	RWQYYNQKFGSG [array peptide with C-terminal GSG linker]
2086	KHSFQKELGGSG [array peptide with C-terminal GSG linker]
9735.75	RYPWNKLYKFDGSG [array peptide with C-terminal GSG linker]

Same assay, conditions: 10 micromolar labeled diaphorase, excess FAD present; 65535 is detector saturation

Sequence	10 microM FAD (array fluorescence of bound diaphorase)
QLLQLLFGGSG [array peptide with C-terminal GSG linker]	53382.25
RLQYLFKSDGSG [array peptide with C-terminal GSG linker]	30591
LKQLFLEGGSG [array peptide with C-terminal GSG linker]	23548.25
WRGFKFADGGSG [array peptide with C-terminal GSG linker]	31464.5

Now from value to sequence:

10 microM FAD (array fluorescence of bound diaphorase)	Sequence
36662	PRYQNFGGGSG [array peptide with C-terminal GSG linker]
37721.5	YRFPNAQSPGGSG [array peptide with C-terminal GSG linker]
65535	RWQYYNQKFGSG [array peptide with C-terminal GSG linker]
300.5	KHSFQKELGGSG [array peptide with C-terminal GSG linker]
53014.5	RYPWNKLYKFDGSG [array peptide with C-terminal GSG linker]

Same assay, conditions: 10 micromolar labeled diaphorase, no FAD; 65535 is detector saturation

Sequence	10 microM no FAD (array fluorescence of bound diaphorase)
QLLQLLFGGSG [array peptide with C-terminal GSG linker]	19529.5
RLQYLFKSDGSG [array peptide with C-terminal GSG linker]	64328.25
LKQLFLEGGSG [array peptide with C-terminal GSG linker]	8696.5
WRGFKFADGGSG [array peptide with C-terminal GSG linker]	58885

Continued, values first:

10 microM no FAD (array fluorescence of bound diaphorase)	Sequence
65535	PRYQNFGGGSG [array peptide with C-terminal GSG linker]
65535	YRFPNAQSPGGSG [array peptide with C-terminal GSG linker]
65535	RWQYYNQKFGSG [array peptide with C-terminal GSG linker]
2387.25	KHSFQKELGGSG [array peptide with C-terminal GSG linker]
65535	RYPWNKLYKFDGSG [array peptide with C-terminal GSG linker]

Same assay, conditions: ratio of binding without FAD to binding with FAD, 1 micromolar diaphorase

Sequence	1 microM noFAD/FAD
QLLQLLFGGSG [array peptide with C-terminal GSG linker]	0.5115
RLQYLFKSDGSG [array peptide with C-terminal GSG linker]	2.941
LKQLFLEGGSG [array peptide with C-terminal GSG linker]	0.6301
WRGFKFADGGSG [array peptide with C-terminal GSG linker]	2.622

The next lines start with the values.

1 microM noFAD/FAD	Sequence
2.81	PRYQNFGGGSG [array peptide with C-terminal GSG linker]
2.63	YRFPNAQSPGGSG [array peptide with C-terminal GSG linker]
2.876	RWQYYNQKFGSG [array peptide with C-terminal GSG linker]
2.867	KHSFQKELGGSG [array peptide with C-terminal GSG linker]
2.795	RYPWNKLYKFDGSG [array peptide with C-terminal GSG linker]

Same assay, conditions: ratio of binding without FAD to binding with FAD, 10 micromolar diaphorase

Sequence	10 microM noFAD/FAD
QLLQLLFGGSG [array peptide with C-terminal GSG linker]	0.3658
RLQYLFKSDGSG [array peptide with C-terminal GSG linker]	2.103
LKQLFLEGGSG [array peptide with C-terminal GSG linker]	0.3693
WRGFKFADGGSG [array peptide with C-terminal GSG linker]	1.871

More lines, now with the values ahead:

10 microM noFAD/FAD	Sequence
1.788	PRYQNFGGGSG [array peptide with C-terminal GSG linker]
1.737	YRFPNAQSPGGSG [array peptide with C-terminal GSG linker]
1	RWQYYNQKFGSG [array peptide with C-terminal GSG linker]
0.7943	KHSFQKELGGSG [array peptide with C-terminal GSG linker]
1.236	RYPWNKLYKFDGSG [array peptide with C-terminal GSG linker]

Same assay, conditions: ratio without/with FAD calculated from measured binding values, 1 micromolar diaphorase

Sequence	Meas. ratio
QLLQLLFGGSG [array peptide with C-terminal GSG linker]	0.51
KEDKVFGFRFDGS	0.70
ALDKLSGLWKHVG	0.69
RLQYLFKSDGSG [array peptide with C-terminal GSG linker]	2.94
LKQLFLEGGSG [array peptide with C-terminal GSG linker]	0.63
LFDNVLEFVEDGS	0.69
WRGFKFADGGSG [array peptide with C-terminal GSG linker]	2.62
YQRHQNVFAKSGG	2.56
PVPWRHVNYAHSG	0.69
DANLFGYFKDGGS	0.70

Continued, values first:

Meas. ratio	Sequence
2.81	PRYQNFGGGSG [array peptide with C-terminal GSG linker]
2.63	YRFPNAQSPGGSG [array peptide with C-terminal GSG linker]
2.88	RWQYYNQKFGSG [array peptide with C-terminal GSG linker]
2.87	KHSFQKELGGSG [array peptide with C-terminal GSG linker]
1.49	YRGAGKNKGGSG [array peptide with C-terminal GSG linker]
0.73	AFNVWQYFEGGSG [array peptide with C-terminal GSG linker]
0.68	VLAYKLQVDGSG [array peptide with C-terminal GSG linker]
2.80	RYPWNKLYKFDGSG [array peptide with C-terminal GSG linker]
